Values of other authors as cited in patent US20100125094A1, “PY[…] NICOTINIC ACETYLCHOLINE RECEPTORS” (AUSPEX PHARMACEUTICALS, INC., priority 2008, published 2010).

For `CN1CCCC1c1cccnc1` (centres unmarked) [Nicotine, 3-(1-methyl-pyrrolidin-2-yl)-pyridine], the “half life of nicotine in the body” value (in the body) is given as “around two” and the “time for nicotine to reach the brain” value (when inhaled, on average) is given as “about seven”.
